Experimental data reported in PubChem BioAssay (NCI).
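Cells were grown in 96-well plates and exposed to each compound for 48 hours at five concentrations; endpoints were interpolated linearly between bracketing concentrations, or set to the highest concentration if not reached. Abbreviation: GI50, concentration required for 50% inhibition of growth. TGI marks complete inhibition of growth.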

How the values were obtained:
Assay in all cases: NCI tumour cell line growth inhibition, 48 h
M19-MEL melanoma = tested on: M19-MEL melanoma
HCT-15 colon = tested on: HCT-15 colon
HT29 colon = tested on: HT29 colon
RXF 393 renal = tested on: RXF 393 renal
UACC-257 melanoma = tested on: UACC-257 melanoma
786-0 renal = tested on: 786-0 renal
A549 NSCLC = tested on: A549 NSCLC
UACC-62 melanoma = tested on: UACC-62 melanoma
DMS 273 small cell lung = tested on: DMS 273 small cell lung
MDA-MB-435 = tested on: MDA-MB-435

C[C@]12CCC(=O)C=C1CC[C@@H]1C2CC[C@]2(C)Nc3[nH]ncc3CC12 (some centres undefined)
TGI (M19-MEL melanoma): > 100 µM
TGI (HCT-15 colon): > 100 µM
TGI (HT29 colon): > 100 µM
TGI (RXF 393 renal): > 100 µM
TGI (UACC-257 melanoma): > 100 µM
TGI (786-0 renal): > 100 µM
TGI (A549 NSCLC): > 100 µM
TGI (UACC-62 melanoma): > 100 µM
TGI (DMS 273 small cell lung): > 100 µM

CCN(CC)CCSc1c2ccccc2nc2c(OC)ccc(OC)c12
TGI (M19-MEL melanoma): 38.2 µM
TGI (HT29 colon): 23.1 µM
TGI (RXF 393 renal): 3.94 µM
TGI (UACC-257 melanoma): 16.5 µM
TGI (786-0 renal): > 20.6 µM
TGI (A549 NSCLC): 50.1 µM
TGI (UACC-62 melanoma): > 22.2 µM
TGI (DMS 273 small cell lung): 25 µM

COC12OCCN(C)C1=CC(=O)C1=NNC(C)C12 (centres undefined)
TGI (M19-MEL melanoma): > 100 µM
TGI (HCT-15 colon): > 100 µM
TGI (HT29 colon): > 100 µM
TGI (RXF 393 renal): > 100 µM
TGI (UACC-257 melanoma): > 100 µM
TGI (786-0 renal): > 100 µM
TGI (A549 NSCLC): > 100 µM
TGI (UACC-62 melanoma): > 100 µM
TGI (DMS 273 small cell lung): > 100 µM

O=C1CCC(=O)c2c1c(O)c1ccncc1c2O
TGI (HCT-15 colon): 26.3 µM
TGI (HT29 colon): 21.3 µM
TGI (RXF 393 renal): 35.6 µM
TGI (UACC-257 melanoma): 20.2 µM
TGI (786-0 renal): 29.1 µM
TGI (A549 NSCLC): 43.5 µM
TGI (UACC-62 melanoma): 20.1 µM
TGI (DMS 273 small cell lung): 37.7 µM

[N-]=[N+]=N/C1=C/CCCCC(=O)C1
TGI (M19-MEL melanoma): > 100 µM
TGI (HCT-15 colon): > 100 µM
TGI (HT29 colon): > 100 µM
TGI (RXF 393 renal): > 100 µM
TGI (UACC-257 melanoma): > 100 µM
TGI (786-0 renal): > 100 µM
TGI (A549 NSCLC): > 100 µM
TGI (UACC-62 melanoma): > 100 µM
TGI (DMS 273 small cell lung): > 100 µM

CCOC(=O)c1ccc(N=Nc2cc(C(=O)OCC)ccc2O)cc1
TGI (M19-MEL melanoma): > 100 µM
TGI (HCT-15 colon): > 100 µM
TGI (HT29 colon): > 100 µM
TGI (RXF 393 renal): > 100 µM
TGI (786-0 renal): > 100 µM
TGI (A549 NSCLC): > 100 µM
TGI (UACC-62 melanoma): > 100 µM
TGI (DMS 273 small cell lung): > 100 µM

Cc1ccc(Nc2oc(-c3ccccc3)nc2[P+](c2ccccc2)(c2ccccc2)c2ccccc2)cc1
GI50 (HCT-15 colon): 0.64 µM
TGI (HCT-15 colon): 2.16 µM
GI50 (HT29 colon): 0.38 µM
TGI (HT29 colon): 1.59 µM
GI50 (RXF 393 renal): 0.864 µM
TGI (RXF 393 renal): 2.34 µM
GI50 (UACC-257 melanoma): 0.718 µM
TGI (UACC-257 melanoma): 2.75 µM
GI50 (786-0 renal): 1.1 µM
TGI (786-0 renal): 2.45 µM
GI50 (A549 NSCLC): 0.938 µM
TGI (A549 NSCLC): 3.23 µM
GI50 (UACC-62 melanoma): 0.687 µM
TGI (UACC-62 melanoma): 2.01 µM
GI50 (MDA-MB-435): 0.606 µM
TGI (MDA-MB-435): 1.97 µM

CSc1ccccc1C#C/C=C\C#Cc1ccccc1N
GI50 (HCT-15 colon): 6.65 µM
TGI (HCT-15 colon): 32.5 µM
GI50 (HT29 colon): 25.1 µM
TGI (HT29 colon): 54.8 µM
GI50 (RXF 393 renal): 24.5 µM
TGI (RXF 393 renal): > 100 µM
GI50 (UACC-257 melanoma): 43.5 µM
TGI (UACC-257 melanoma): > 100 µM
GI50 (786-0 renal): 16.3 µM
TGI (786-0 renal): 42.6 µM
GI50 (A549 NSCLC): 7.58 µM
TGI (A549 NSCLC): 89.6 µM
GI50 (UACC-62 melanoma): 7.83 µM
TGI (UACC-62 melanoma): 34.9 µM
GI50 (MDA-MB-435): 0.982 µM
TGI (MDA-MB-435): 2.49 µM

C[C@@]12CCC[C@@](C)(C(=O)O)C1CC[C@]13CC(=O)[C@](CO)(C1)[C@@H](O)CC32 (some centres undefined)
GI50 (HCT-15 colon): > 100 µM
TGI (HCT-15 colon): > 100 µM
GI50 (HT29 colon): > 100 µM
TGI (HT29 colon): > 100 µM
GI50 (RXF 393 renal): > 100 µM
TGI (RXF 393 renal): > 100 µM
GI50 (UACC-257 melanoma): > 100 µM
TGI (UACC-257 melanoma): > 100 µM
GI50 (786-0 renal): > 100 µM
TGI (786-0 renal): > 100 µM
GI50 (A549 NSCLC): > 100 µM
TGI (A549 NSCLC): > 100 µM
GI50 (UACC-62 melanoma): > 100 µM
TGI (UACC-62 melanoma): > 100 µM
GI50 (MDA-MB-435): > 100 µM
TGI (MDA-MB-435): > 100 µM

O=[N+]([O-])c1cccc2ccc(N/N=C/c3ccccc3O)nc12
GI50 (HCT-15 colon): > 100 µM
TGI (HCT-15 colon): > 100 µM
GI50 (HT29 colon): > 100 µM
TGI (HT29 colon): > 100 µM
GI50 (RXF 393 renal): 65.8 µM
TGI (RXF 393 renal): > 100 µM
GI50 (UACC-257 melanoma): > 100 µM
TGI (UACC-257 melanoma): > 100 µM
GI50 (786-0 renal): > 100 µM
TGI (786-0 renal): > 100 µM
GI50 (A549 NSCLC): > 100 µM
TGI (A549 NSCLC): > 100 µM
GI50 (UACC-62 melanoma): > 100 µM
TGI (UACC-62 melanoma): > 100 µM
GI50 (MDA-MB-435): > 100 µM
TGI (MDA-MB-435): > 100 µM

COC(=O)C1=CN(CC2=CC(=O)C(C)=CC2=O)C=C(C(=O)OC)C1c1cccc(OC)c1
GI50 (HCT-15 colon): 16.6 µM
TGI (HCT-15 colon): 39 µM
GI50 (HT29 colon): 37 µM
TGI (HT29 colon): > 100 µM
GI50 (RXF 393 renal): 17.4 µM
TGI (RXF 393 renal): 39.8 µM
GI50 (UACC-257 melanoma): 16.3 µM
TGI (UACC-257 melanoma): 31 µM
GI50 (786-0 renal): > 22.5 µM
TGI (786-0 renal): > 41 µM
GI50 (A549 NSCLC): 25.1 µM
TGI (A549 NSCLC): > 67.2 µM
GI50 (UACC-62 melanoma): 13.6 µM
TGI (UACC-62 melanoma): 29.4 µM
GI50 (MDA-MB-435): 5.8 µM
TGI (MDA-MB-435): 16.2 µM

Cc1ccc2c(C3C(C#N)=C(N)Oc4cc5ccccc5cc43)cc(=O)oc2c1 (centres undefined)
GI50 (HCT-15 colon): 0.64 µM
TGI (HCT-15 colon): > 100 µM
GI50 (HT29 colon): 3 µM
TGI (HT29 colon): 13.1 µM
GI50 (RXF 393 renal): 0.671 µM
TGI (RXF 393 renal): 6.11 µM
GI50 (UACC-257 melanoma): 24.5 µM
TGI (UACC-257 melanoma): > 100 µM
GI50 (786-0 renal): 1.83 µM
TGI (786-0 renal): > 100 µM
GI50 (A549 NSCLC): 2.95 µM
TGI (A549 NSCLC): > 100 µM
GI50 (UACC-62 melanoma): 0.704 µM
TGI (UACC-62 melanoma): > 100 µM
GI50 (MDA-MB-435): 0.286 µM
TGI (MDA-MB-435): 1.07 µM

O=C(O)c1ccc(C(=O)O)c2c(C(=O)O)ccc(C(=O)O)c12
TGI (HCT-15 colon): > 100 µM
TGI (HT29 colon): > 100 µM
TGI (RXF 393 renal): > 100 µM
TGI (UACC-257 melanoma): > 100 µM
TGI (786-0 renal): > 100 µM
TGI (A549 NSCLC): > 100 µM
TGI (UACC-62 melanoma): > 100 µM
TGI (MDA-MB-435): > 100 µM

CC(C)=CCc1cc(O)cc2c1OC(C=C(C)C)C1=C2C(=O)C2=C(C1=O)S(=O)(=O)CCN2 (centres undefined)
GI50 (HCT-15 colon): 5.8 µM
TGI (HCT-15 colon): > 16.7 µM
GI50 (HT29 colon): 6.61 µM
TGI (HT29 colon): > 16.7 µM
GI50 (RXF 393 renal): 3.02 µM
TGI (RXF 393 renal): 12.5 µM
GI50 (UACC-257 melanoma): 2.56 µM
TGI (UACC-257 melanoma): 4.97 µM
GI50 (786-0 renal): 5.05 µM
TGI (786-0 renal): > 16.7 µM
GI50 (A549 NSCLC): 6.14 µM
TGI (A549 NSCLC): > 16.7 µM
GI50 (UACC-62 melanoma): 2.81 µM
TGI (UACC-62 melanoma): 5.46 µM
GI50 (MDA-MB-435): 3.05 µM
TGI (MDA-MB-435): 5.8 µM

Nc1c(C(=O)c2ccccc2)cnn1-c1ccc(F)cc1
GI50 (HCT-15 colon): > 25 µM
TGI (HCT-15 colon): > 25 µM
GI50 (HT29 colon): > 25 µM
TGI (HT29 colon): > 25 µM
GI50 (RXF 393 renal): > 25 µM
TGI (RXF 393 renal): > 25 µM
GI50 (UACC-257 melanoma): > 25 µM
TGI (UACC-257 melanoma): > 25 µM
GI50 (786-0 renal): > 25 µM
TGI (786-0 renal): > 25 µM
GI50 (A549 NSCLC): > 25 µM
TGI (A549 NSCLC): > 25 µM
GI50 (UACC-62 melanoma): > 25 µM
TGI (UACC-62 melanoma): > 25 µM
GI50 (MDA-MB-435): > 25 µM
TGI (MDA-MB-435): > 25 µM

Cn1c(=O)c(Oc2ccc(F)cc2)cc2cnc(NC3CCOCC3)nc21
GI50 (HCT-15 colon): > 25 µM
TGI (HCT-15 colon): > 25 µM
GI50 (HT29 colon): > 25 µM
TGI (HT29 colon): > 25 µM
GI50 (RXF 393 renal): 24.7 µM
TGI (RXF 393 renal): > 25 µM
GI50 (UACC-257 melanoma): > 25 µM
TGI (UACC-257 melanoma): > 25 µM
GI50 (786-0 renal): > 25 µM
TGI (786-0 renal): > 25 µM
GI50 (A549 NSCLC): > 25 µM
TGI (A549 NSCLC): > 25 µM
GI50 (UACC-62 melanoma): > 25 µM
TGI (UACC-62 melanoma): > 25 µM
GI50 (MDA-MB-435): > 25 µM
TGI (MDA-MB-435): > 25 µM

CC(C)OC(=O)[C@H](C)NP(=O)(OC[C@H]1O[C@@H](n2ccc(=O)[nH]c2=O)[C@](C)(F)[C@@H]1O)Oc1ccccc1 (some centres undefined)
GI50 (HCT-15 colon): > 100 µM
TGI (HCT-15 colon): > 100 µM
GI50 (HT29 colon): > 100 µM
TGI (HT29 colon): > 100 µM
GI50 (RXF 393 renal): > 100 µM
TGI (RXF 393 renal): > 100 µM
GI50 (UACC-257 melanoma): > 100 µM
TGI (UACC-257 melanoma): > 100 µM
GI50 (786-0 renal): > 100 µM
TGI (786-0 renal): > 100 µM
GI50 (A549 NSCLC): > 100 µM
TGI (A549 NSCLC): > 100 µM
GI50 (UACC-62 melanoma): > 100 µM
TGI (UACC-62 melanoma): > 100 µM
GI50 (MDA-MB-435): > 100 µM
TGI (MDA-MB-435): > 100 µM
